Results from PubChem BioAssay (NCI).
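Cultured in 96-well plates, cells were exposed to test compound for 48 hours across five concentrations. TGI: total growth inhibition.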

How the values were obtained:
Test in all cases: NCI-60 cell line screen, 48 h
[1] = test system: DMS 114 small cell lung
[2] = test system: DLD-1 colon
[3] = test system: OVCAR-5 ovarian
[4] = test system: KM20L2 colon
[5] = test system: UACC-257 melanoma
[6] = test system: A498 renal
[7] = test system: HOP-18 NSCLC
[8] = test system: RXF 393 renal
[9] = test system: NCI-H23 lung
[10] = test system: OVCAR-8 ovarian
[11] = test system: K-562 leukemia
[12] = test system: HL-60(TB) leukemia
[13] = test system: EKVX NSCLC
[14] = test system: CCRF-CEM leukemia
[15] = test system: SNB-75 CNS
[16] = test system: SF-539 CNS
[17] = test system: DMS 273 small cell lung
[18] = test system: SK-MEL-5 melanoma
[19] = test system: HCT-15 colon
[20] = test system: HOP-62 NSCLC
[21] = test system: HOP-92 NSCLC
[22] = test system: SK-OV-3 ovarian
[23] = test system: MALME-3M melanoma
[24] = test system: LXFL 529 NSCLC
[25] = test system: NCI-H522 lung
[26] = test system: SW-620 colon
[27] = test system: NCI-H460 lung
[28] = test system: HCT-116 colon
[29] = test system: OVCAR-4 ovarian
[30] = test system: SNB-19 CNS
[31] = test system: UO-31 renal
[32] = test system: SN12C renal
[33] = test system: SF-268 CNS
[34] = test system: UACC-62 melanoma
[35] = test system: SF-295 CNS
[36] = test system: IGROV1 ovarian
[37] = test system: NCI-H226 lung
[38] = test system: U251 CNS
[39] = test system: A549 NSCLC
[40] = test system: SK-MEL-2 melanoma
[41] = test system: SR leukemia
[42] = test system: SK-MEL-28 melanoma
[43] = test system: XF 498 CNS
[44] = test system: CAKI-1 renal
[45] = test system: 786-0 renal
[46] = test system: COLO 205 colon
[47] = test system: TK-10 renal
[48] = test system: RPMI-8226 leukemia
[49] = test system: MOLT-4 leukemia
[50] = test system: ACHN renal
[51] = test system: SNB-78 CNS
[52] = test system: M14 melanoma
[53] = test system: HCC-2998 colon
[54] = test system: KM12 colon
[55] = test system: HT29 colon
[56] = test system: MDA-MB-435
[57] = test system: NCI/ADR-RES ovarian
[58] = test system: MDA-N
[59] = test system: PC-3 prostate
[60] = test system: LOX IMVI melanoma
[61] = test system: T-47D breast
[62] = test system: BT-549 breast
[63] = test system: MDA-MB-231 breast
[64] = test system: DU-145 prostate
[65] = test system: OVCAR-3 ovarian
[66] = test system: MCF7 breast
[67] = test system: HS 578T breast
[68] = test system: M19-MEL melanoma

Q: What does the source list for COC(=O)C1CCC[C@H]2C(CO)=C(C)C(=O)[C@@H]12 (some centres undefined)?
A: TGI [1]: > 100 µM; TGI [2]: > 100 µM; TGI [3]: > 100 µM; TGI [4]: > 100 µM; TGI [5]: > 100 µM; TGI [6]: > 100 µM; TGI [7]: > 100 µM; TGI [8]: > 100 µM; TGI [9]: > 100 µM; TGI [10]: > 100 µM; TGI [11]: > 100 µM; TGI [12]: > 100 µM; TGI [13]: > 100 µM; TGI [14]: > 100 µM; TGI [15]: > 100 µM; TGI [16]: > 100 µM; TGI [17]: > 100 µM; TGI [18]: > 100 µM; TGI [19]: > 100 µM; TGI [20]: > 100 µM; TGI [21]: > 100 µM; TGI [22]: > 100 µM; TGI [23]: > 100 µM; TGI [24]: > 100 µM; TGI [25]: > 100 µM; TGI [26]: > 100 µM; TGI [27]: > 100 µM; TGI [28]: > 100 µM; TGI [29]: > 100 µM; TGI [30]: > 100 µM; TGI [31]: > 100 µM; TGI [32]: > 100 µM; TGI [33]: > 100 µM; TGI [34]: > 100 µM; TGI [35]: > 100 µM; TGI [36]: > 100 µM; TGI [37]: > 100 µM; TGI [38]: > 100 µM; TGI [39]: > 100 µM; TGI [40]: > 100 µM; TGI [41]: > 100 µM; TGI [42]: > 100 µM; TGI [43]: > 100 µM; TGI [44]: > 100 µM; TGI [45]: > 100 µM; TGI [46]: > 100 µM; TGI [47]: > 100 µM; TGI [48]: > 100 µM; TGI [49]: > 100 µM; TGI [50]: > 100 µM; TGI [51]: > 100 µM; TGI [52]: > 100 µM; TGI [53]: > 100 µM; TGI [54]: > 100 µM; TGI [55]: > 100 µM

Q: For CC(=O)O[C@H]1CC[C@@]2(C)C(=CC[C@H]3[C@@H]4C/C(=C\c5ccncc5)[C@H](OC(C)=O)[C@@]4(C)CC[C@@H]32)C1, which TGI [3] is on record?
A: 36.6 µM

Q: What about the TGI [5] of the same compound?
A: 33.3 µM

Q: And the TGI [6]?
A: 26.7 µM

Q: What about the TGI [8] of the same compound?
A: 9.86 µM

Q: What about the TGI [9] of the same compound?
A: 19.3 µM

Q: What about the TGI [10] of the same compound?
A: 34.5 µM

Q: And the TGI [11]?
A: 42.4 µM

Q: And the TGI [56]?
A: 36.5 µM

Q: What about the TGI [12] of the same compound?
A: 16.7 µM

Q: And the TGI [13]?
A: 36.3 µM

Q: What about the TGI [57] of the same compound?
A: 27.3 µM

Q: And the TGI [58]?
A: 46.8 µM

Q: And the TGI [14]?
A: 11.2 µM

Q: What about the TGI [15] of the same compound?
A: 23.8 µM

Q: What about the TGI [16] of the same compound?
A: 15.6 µM

Q: What about the TGI [59] of the same compound?
A: 46.8 µM

Q: What about the TGI [18] of the same compound?
A: 18.9 µM

Q: What about the TGI [60] of the same compound?
A: 13.3 µM

Q: What about the TGI [19] of the same compound?
A: 15.6 µM

Q: And the TGI [20]?
A: 17.7 µM

Q: What about the TGI [21] of the same compound?
A: 19.7 µM

Q: What about the TGI [61] of the same compound?
A: 38.5 µM

Q: What about the TGI [22] of the same compound?
A: 44.1 µM

Q: What about the TGI [23] of the same compound?
A: 21.7 µM

Q: And the TGI [25]?
A: 18.5 µM

Q: What about the TGI [26] of the same compound?
A: 17.2 µM

Q: What about the TGI [27] of the same compound?
A: 24.4 µM

Q: What about the TGI [28] of the same compound?
A: 24.1 µM

Q: What about the TGI [29] of the same compound?
A: 18.2 µM

Q: What about the TGI [30] of the same compound?
A: 22.2 µM

Q: And the TGI [62]?
A: 10.9 µM

Q: And the TGI [31]?
A: 20.7 µM

Q: And the TGI [32]?
A: 33 µM

Q: And the TGI [33]?
A: 25.8 µM

Q: What about the TGI [34] of the same compound?
A: 26.5 µM

Q: And the TGI [35]?
A: 19.5 µM

Q: What about the TGI [36] of the same compound?
A: 27.7 µM

Q: What about the TGI [37] of the same compound?
A: 34.6 µM

Q: And the TGI [38]?
A: 23.1 µM

Q: And the TGI [39]?
A: 29.8 µM

Q: What about the TGI [63] of the same compound?
A: 41.1 µM

Q: What about the TGI [40] of the same compound?
A: 33.3 µM

Q: What about the TGI [41] of the same compound?
A: 9.19 µM

Q: What about the TGI [42] of the same compound?
A: 20.6 µM

Q: What about the TGI [44] of the same compound?
A: 25.7 µM

Q: And the TGI [45]?
A: 23.3 µM

Q: What about the TGI [64] of the same compound?
A: 29.4 µM

Q: What about the TGI [46] of the same compound?
A: 18.2 µM

Q: What about the TGI [47] of the same compound?
A: 47.9 µM

Q: And the TGI [48]?
A: 7.6 µM

Q: And the TGI [49]?
A: 13.9 µM

Q: And the TGI [50]?
A: 33.6 µM

Q: And the TGI [65]?
A: 23.4 µM

Q: What about the TGI [52] of the same compound?
A: 30.2 µM

Q: What about the TGI [66] of the same compound?
A: 30.3 µM

Q: What about the TGI [53] of the same compound?
A: 26.3 µM

Q: And the TGI [54]?
A: 16.3 µM

Q: And the TGI [67]?
A: > 100 µM

Q: What about the TGI [55] of the same compound?
A: 20.3 µM

Q: Which results are given for O=c1[nH]cnc2c1ncn2C1SC(CO)C(O)C1O (centres undefined)?
A: TGI [3]: > 100 µM; TGI [5]: > 100 µM; TGI [6]: > 100 µM; TGI [8]: > 100 µM; TGI [9]: > 100 µM; TGI [10]: > 100 µM; TGI [11]: > 100 µM; TGI [56]: > 100 µM; TGI [12]: > 100 µM; TGI [13]: > 100 µM; TGI [57]: > 100 µM; TGI [58]: > 100 µM; TGI [14]: > 100 µM; TGI [15]: > 100 µM; TGI [16]: > 100 µM; TGI [59]: > 100 µM; TGI [18]: > 100 µM; TGI [60]: > 100 µM; TGI [19]: > 100 µM; TGI [20]: > 100 µM; TGI [21]: > 100 µM; TGI [61]: > 100 µM; TGI [22]: > 100 µM; TGI [23]: > 100 µM; TGI [25]: > 100 µM; TGI [26]: > 100 µM; TGI [27]: > 100 µM; TGI [28]: > 100 µM; TGI [29]: > 100 µM; TGI [30]: > 100 µM; TGI [62]: > 100 µM; TGI [31]: > 100 µM; TGI [32]: > 100 µM; TGI [33]: > 100 µM; TGI [34]: > 100 µM; TGI [35]: > 100 µM; TGI [36]: > 100 µM; TGI [37]: > 100 µM; TGI [38]: > 100 µM; TGI [39]: > 100 µM; TGI [63]: > 100 µM; TGI [40]: > 100 µM; TGI [41]: > 100 µM; TGI [42]: > 100 µM; TGI [44]: > 100 µM; TGI [45]: > 100 µM; TGI [64]: > 100 µM; TGI [46]: > 100 µM; TGI [47]: > 100 µM; TGI [48]: > 100 µM; TGI [49]: > 100 µM; TGI [50]: > 100 µM; TGI [65]: > 100 µM; TGI [52]: > 100 µM; TGI [66]: > 100 µM; TGI [53]: > 100 µM; TGI [54]: > 100 µM; TGI [67]: > 100 µM; TGI [55]: > 100 µM

Q: Which results are given for CCOP(=O)(OCC)/C(C#N)=C/c1cc(O)ccc1O?
A: TGI [1]: > 100 µM; TGI [3]: > 100 µM; TGI [4]: > 100 µM; TGI [5]: > 100 µM; TGI [6]: > 100 µM; TGI [8]: > 100 µM; TGI [9]: > 100 µM; TGI [11]: > 100 µM; TGI [15]: > 100 µM; TGI [16]: > 100 µM; TGI [68]: > 100 µM; TGI [20]: > 100 µM; TGI [21]: > 100 µM; TGI [22]: > 100 µM; TGI [23]: > 100 µM; TGI [24]: > 100 µM; TGI [27]: > 100 µM; TGI [28]: > 100 µM; TGI [29]: > 100 µM; TGI [30]: > 100 µM; TGI [31]: > 100 µM; TGI [33]: > 100 µM; TGI [34]: > 100 µM; TGI [35]: > 100 µM; TGI [36]: > 100 µM; TGI [38]: > 100 µM; TGI [40]: > 100 µM; TGI [42]: > 100 µM; TGI [46]: > 100 µM; TGI [48]: > 100 µM; TGI [50]: > 100 µM; TGI [51]: > 100 µM; TGI [65]: > 100 µM; TGI [52]: > 100 µM; TGI [54]: > 100 µM; TGI [55]: > 100 µM
